Assay results taken from patent publication US20210315837A1, “CANNABINOIDS FOR THE TREATMENT OF GRAM-POSITIVE INFECTIONS INCLUDING ANTIBIOTIC-RESISTANT BACTERIAL STRAINS” (priority 2018, published 2021).
Values after ≈ are worked out from the molar mass of the structure shown. Values joined by “and” are separate entries in the source; they are usually repeats but may differ in a detail not shown here. Identical values can stand only once. Like-named read-outs stand apart in the source and are kept apart here.

What was measured:
MRS 33591 = test: IC50, MIC and MBC against MRS 33591; assay type: cell-based, Staphylococcus aureus
Procedure: (§1) As used herein, the term “minimum inhibitory concentration (MIC)” refers to the lowest concentration of an antimicrobial agent that will inhibit the visible growth of a microorganism after overnight incubation. MIC values against bacteria may be determined by standard methods. See also P. A. Wayne, Methods for Dilution Antimicrobial Tests for Bacteria that Grow Aerobically; Approved Standard, Ninth Edition, 2012, CLSI Document M07-A9, Vol. 32 No. 2, which is incorporated by reference herein in its entirety.

MRS USA 300 = test: IC50, MIC and MBC against MRS USA 300; assay type: cell-based, Staphylococcus aureus
Procedure: as §1

MRS USA 400 = test: IC50, MIC and MBC against MRS USA 400; assay type: cell-based, Staphylococcus aureus
Procedure: as §1

[1] = tested on: MRS 1708 (Mupirocin-resistant); test: IC50, MIC and MBC against MRS 1708 (Mupirocin-resistant); assay type: cell-based, Staphylococcus aureus; set-up: AMC: unit not given here
Procedure: as §1

S. aureus 29213 = test: IC50, MIC and MBC against S. aureus 29213; assay type: cell-based
Procedure: As used herein, the term “minimum inhibitory concentration (MIC)” refers to the lowest concentration of an antimicrobial agent that will inhibit the visible growth of a microorganism after overnight incubation. MIC values against bacteria may be determined by standard methods.

[2] = MRS USA 300, tested Conc. in μg/mL
[3] = MRS USA 400, tested Conc. in μg/mL
[4] = Staphylococcus aureus, S. aureus 29213, tested Conc. in μg/mL, read-out: MIC
[5] = MRS 33591, tested Conc. in μg/mL
[6] = Mupirocin-resistant MRS (Table 11), in µg/mL
[7] = S. aureus 29213, tested Conc. in μg/mL
[8] = S. aureus 29213, tested Conc. in μg/mL, NA given without definition
[9] = Mupirocin-resistant MRS (Table 11)

Compound | IC50 (MRS 33591; Staphylococcus aureus) | MIC (MRS 33591; Staphylococcus aureus) | MIC (MRS USA 300; [2]) | IC50 (MRS USA 300; Staphylococcus aureus, USA300) | MIC (MRS USA 400; [3]) | IC50 (MRS USA 400; Staphylococcus aureus, USA400) | IC50 ([1]; Staphylococcus aureus) | IC50 (S. aureus 29213; Staphylococcus aureus, 29213) [µg/mL] | IC50 (MRS 33591; [5]) | MIC (MRS 33591; [5]) | IC50 (MRS USA 300; [2]) | IC50 (MRS USA 400; [3]) | IC50 [1, 6] | MIC (S. aureus 29213; [7]) | IC50 (S. aureus 29213; [8]) | MBC (MRS 33591; [5]) | AMC [1, 9] | also measured
C=C(C)[C@@H]1CCC(C)=C[C@H]1c1c(O)cc(CCCCC)c(C(=O)O)c1O [Cannabidiolic acid] | 7.27 µg/mL | 20 µg/mL | 20 ± 0 | 6.11 µg/mL | 13.33 | 4.99 µg/mL | 5.57 ± 0.68 µg/mL | 6.83 (≈ 19.1 µM) |  |  |  |  |  |  |  |  |  | MIC (S. aureus 29213; [4]): 16.7 µg/mL (≈ 46.5 µM)
CCCCCc1cc(O)c2c(c1)OC(C)(C)c1cc(O)c(C)cc1-2 [8-Hydroxycannabinol] |  |  | 5 ± 0 |  | 5 ± 0 |  |  |  | 2.33 | 5 ± 0 | 1.58 | 1.82 | 2.15 ± 0.22 | 5 ± 0 | 1.2 |  |  | 
O=C(O)c1cn(C2CC2)c2cc(N3CCNCC3)c(F)cc2c1=O [Ciprofloxacin, reference compound] | 0.12 µg/mL | 0.67 µg/mL | 0.5 ± 0 | 0.13 µg/mL |  |  |  | 0.12 (≈ 0.362 µM) |  |  |  |  |  |  |  | 0.67 |  | MBC (MRS USA 300; [2]): 0.67; MBC (S. aureus 29213; [7]): 0.67; MIC (S. aureus 29213; Staphylococcus aureus, 29213): 0.5 µg/mL (≈ 1.51 µM)
CCCCCc1cc(O)c(CCC(C)CCCC(C)C)c(O)c1 (stereo not drawn) [Tetrahydro CBG, Tetrahydrocannabigerol] |  |  | 2.08 |  | 2.5 ± 0 |  |  |  | 0.67 ± 0 | 1.25 ± 0 | 0.82 ± 0.1 | 1.12 | 0.83 ± 0.2 | 1.25 ± 0 | 0.7 | 3.75 | 3.33 ± 1.44 | MBC (MRS 33591; MRS 33591): 11.7 ± 5.52 µM (≈ 3.75 µg/mL); MIC (MRS 33591; MRS 33591): 3.9 ± 0 µM; IC50 (MRS 33591; MRS 33591, read-out: IC50): 2090 nM; MBC (MRS USA 300; MRS USA 300): >62 µM; MIC (MRS USA 300; MRS USA 300): 6.49 ± 2.25 µM (≈ 2.08 µg/mL); IC50 (MRS USA 300; MRS USA 300, read-out: IC50): 2560 ± 310 nM; MBC (MRS USA 400; MRS USA 400): 31.2 ± 0 µM (≈ 10 µg/mL); MIC (MRS USA 400; MRS USA 400): 7.8 ± 0 µM (≈ 2.5 µg/mL); IC50 (MRS USA 400; MRS USA 400, read-out: IC50): 3490 ± 500 nM; MBC (MRS USA 400; [3]): 10 ± 0; MBC ([1]; MRS 1708 (Mupirocin-resistant)): 10.39 ± 4.49 µM (≈ 3.33 µg/mL); MIC ([1]; MRS 1708 (Mupirocin-resistant)): 5.21 ± 2.25 µM (≈ 1.67 µg/mL); IC50 ([1]; MRS 1708 (Mupirocin-resistant), read-out: IC50): 2590 ± 620 nM
Methyl tetrahydrocannabigerol |  |  |  |  |  |  |  |  | 1.83 and 1.39 |  | 1.76 and 1.26 | 1.91 and 1.42 |  |  | 1.8 and 1.53 |  | 8.33 ± 2.89 | MBC (S. aureus 29213; [7]): 10 ± 0
CCCCCc1cc(O)c(C/C=C(\C)CCC2OC2(C)C)c(O)c1 (stereo not drawn) [6,7-Epoxycannabigerol] |  |  | 20 ± 0 |  | 20 ± 0 |  |  |  | 6.73 | 13.33 | 7.53 | 8.67 | 7.74 ± 1.17 | 16.67 | 5.83 |  | 20 ± 0 | 
CCCCCc1cc(O)c2c(c1)OC(C)(CCC=C(C)C)C=C2 (stereo not drawn) [Cannabichromene] | 2.58 µg/mL | 5 µg/mL |  | 6.44 µg/mL |  | 7.28 µg/mL | 5.04 ± 0.55 µg/mL | 6.96 (≈ 22.1 µM) |  |  |  |  |  |  |  |  |  | 
CC(C)=CCCC1(C)C=Cc2c(O)cc(C)cc2O1 (stereo not drawn) [Cannabichromeorcin] |  |  | 10 ± 0 |  | 10 ± 0 |  |  |  | 5.56 | 10 ± 0 | 5.41 | 5.9 | 5.57 ± 0.27 | 10 ± 0 | 6.94 | 20 ± 0 | 13.33 ± 5.77 | MBC (MRS USA 300; [2]): 13.33; MBC (MRS USA 400; [3]): 20 ± 0
CCCCCc1cc(O)c(C/C=C(\C)CCC=C(C)C)c(O)c1C(=O)O [Cannabigerolic acid] | 2.29 µg/mL | 13.3 µg/mL | 8.33 | 1.52 µg/mL | 5 ± 0 | 1.67 µg/mL | 1.55 ± 0.27 µg/mL | 2.05 (≈ 5.69 µM) |  |  |  |  |  |  |  |  |  | MIC (S. aureus 29213; [4]): 8.33 µg/mL (≈ 23.1 µM)
Tetrahydrocannabigerolic acid |  |  | 20 ± 0 |  | 13.33 |  |  |  | 4.33 | 20 ± 0 | 2.98 | 2.79 | 3.24 ± 0.13 | 20 ± 0 | 3.67 |  |  | 
CC(C)=CCC/C(C)=C\Cc1c(O)cc(C)cc1O [(Z)-Cannabigerorcin] |  |  | 16.67 |  | 13.33 |  |  |  | 9.48 | 20 ± 0 | 6.46 | 7.27 | 6.93 ± 1.54 | 16.67 | 8.12 |  |  | 
C=C(C)[C@@H]1CC[C@](C)(O)[C@H]2Oc3cc(CCCCC)cc(O)c3[C@@H]12 [Cannabielsoin] |  |  | 10 ± 0 |  | 10 ± 0 |  |  |  | 6.26 | 10 ± 0 | 5.49 | 6.03 | 6.03 ± 0.49 | 10 ± 0 | 6.15 |  | 20 ± 0 | MBC (MRS USA 300; [2]): 20 ± 0
C/C(=C\C(=O)OCCCCCCCCC(=O)O)C[C@@H]1OC[C@H](C[C@@H]2O[C@H]2[C@@H](C)[C@H](C)O)[C@@H](O)[C@H]1O [Mupirocin, reference compound] | 80 nM and 0.04 µg/mL | 0.44 µM and 0.22 µg/mL | 0.23 | 80 nM and 0.04 µg/mL | 0.16 ± 0 | 80 nM and 0.04 µg/mL | > 100000 nM | 0.04 (≈ 0.0799 µM) |  |  |  |  |  |  |  | 2.08 |  | MBC (MRS 33591; Staphylococcus aureus): 4.15 ± 2.6 µM (≈ 2.08 µg/mL); MBC (MRS USA 300; Staphylococcus aureus, USA300): 3.76 ± 1.76 µM (≈ 1.88 µg/mL); MIC (MRS USA 300; Staphylococcus aureus, USA300): 0.46 ± 0.22 µM (≈ 0.23 µg/mL); MBC (MRS USA 400; [3]): 0.94 ± 0.44; MBC (MRS USA 400; Staphylococcus aureus, USA400): 1.88 ± 0.88 µM (≈ 0.941 µg/mL); MIC (MRS USA 400; Staphylococcus aureus, USA400): 0.32 µM (≈ 0.16 µg/mL); MBC ([1]; Staphylococcus aureus): > 100 µM; MIC ([1]; Staphylococcus aureus): > 100 µM; MBC (S. aureus 29213; [7]): 1.25 ± 0; MIC (S. aureus 29213; [4]): 0.39 µg/mL (≈ 0.779 µM)
CCCCCc1cc(O)c2c(c1)OC(C)(C)[C@@H]1CC=C(C)C[C@@H]21 [Δ8-Tetrahydrocannabinol] |  |  | 5 ± 0 |  | 10 ± 0 |  |  |  | 1.43 | 2.5 ± 0 | 1.91 | 2.55 | 1.82 ± 0.08 | 2.5 ± 0 | 1.47 | 10 ± 0 | 10 ± 8.66 | 
COc1cccc(OC)c1C(=O)N[C@@H]1C(=O)N2[C@@H]1SC(C)(C)[C@@H]2C(=O)O [Methicillin, reference compound] | > 131000 nM | > 131 µM |  | 70.2 µM and 26.7 µg/mL | 25 ± 0 | 8.78 µM and 3.34 µg/mL | 7.31 µM and 2.78 µg/mL | 0.65 (≈ 1.71 µM) |  |  |  |  |  |  |  |  | 25 ± 0 | MBC (MRS 33591; Staphylococcus aureus): > 131 µM; MBC (MRS USA 300; Staphylococcus aureus, USA300): > 131 µM; MIC (MRS USA 300; Staphylococcus aureus, USA300): > 131 µM; MBC (MRS USA 400; [3]): 41.67; MBC (MRS USA 400; Staphylococcus aureus, USA400): 110 ± 37.9 µM (≈ 41.7 µg/mL); MIC (MRS USA 400; Staphylococcus aureus, USA400): 65.7 µM (≈ 25 µg/mL); MBC ([1]; Staphylococcus aureus): 65.7 µM (≈ 25 µg/mL); MIC ([1]; Staphylococcus aureus): 65.7 µM (≈ 25 µg/mL); MIC (S. aureus 29213; Staphylococcus aureus, 29213): 2.6 ± 0.9 µg/mL (≈ 6.83 µM)
